Assay results reported in patent US20180250230A1, “POLYMERS AND MICROSPHERES” (BIOCOMPATIBLES UK LIMITED, priority 2015, published 2018).

Experiment: Elution of dyes from loaded microspheres in PBS
Format: physicochemical
Details: from APTA43 microspheres; 1 ml in 200 mL PBS; initial loading 8.6 umols per mL of microspheres
Procedure: Microspheres of each polymer formulation were loaded with equal quantities of each dye. 1 ml samples of dye-loaded microspheres were added to 200 mL of PBS in an amber jar. The microsphere suspensions were rolled to provide continuous mixing. At each time point the eluent was sampled and assayed by UV/Vis spectrophotmetery as above. The volume of sampled eluent was replaced with fresh PBS to maintain the elution volume. FIG. 5 illustrates the elution profiles of each dye from APTA43 microspheres.

Structure (SMILES) | initial loaded amount released within 60 minutes
O=S(=O)([O-])c1ccc2ccc3cccc4ccc1c2c34.[Na+] [Formulation P1, 1-pyrenesulfonic acid sodium salt] | 80%
O=S(=O)([O-])c1cc(S(=O)(=O)[O-])c2ccc3c(O)cc(O)c4ccc1c2c43.[Na+].[Na+] [Formulation P2, 6,8-dihydroxypyrene-1,3-disulfonic acid disodium salt] | 9%
O=S(=O)([O-])c1cc(O)c2ccc3c(S(=O)(=O)[O-])cc(S(=O)(=O)[O-])c4ccc1c2c34.[Na+].[Na+].[Na+] [Formulation P3, 8-hydroxypyrene-1,3,6-trisulfonic acid trisodium salt] | approximately 3%
O.O=S(=O)([O-])c1cc(S(=O)(=O)[O-])c2ccc3c(S(=O)(=O)[O-])cc(S(=O)(=O)[O-])c4ccc1c2c43.[Na+].[Na+].[Na+].[Na+] [Formulation P4, 1,3,6,8-pyrenetetrasulfonic acid hydrate tetrasodium salt] | approximately 3%
